We go through three compounds from patent publication US20110245323A1, “RIG-Like Helicase Innate Immunity Inhibits VEGF-Induced Tissue Responses” (Yale University, priority 2006, published 2011).

Data set [1] concerns CC10-rtTA-VEGF165 transgenic mice. Kind of data set: VEGF-induced angiogenesis, anti-CD31 immunohistochemistry and vessel area density. The data set is classed as in vivo, mouse. The following applies: for Vascularity (%): VEGF-induced tissue responses, TLR agonist administration, PBS control 43. On the procedure: (§1) The CC10-rtTA-VEGF165 transgenic mice used in this study were generated and used as described previously (Lee et al., 2004, Nature Medicine 10:1095-103), which reference is incorporated herein in its entirety. These animals were housed under barrier conditions in the animal facility at Yale University School of Medicine. In these experiments 6-8 week old transgenic (Tg+) animals and their transgene negative littermate controls (Tg−) were randomized to receive water with doxycycline (dox) (0.5 mg/ml) or normal water. Two weeks later they were sacrificed and the VEGF-induced phenotype was evaluated as described below (Lee et al., 2004, Nature Medicine 10:1095-103).
(§2) To define the effects of these agents on the tissue responses induced by VEGF, two experimental procedures were used. In the first, a pretreatment protocol was used. In these experiments the noted innate immunity agonist ([…] unless otherwise indicated) or its vehicle control (PBS) were administered intranasally and aspirated into the lungs of randomized Tg+ and Tg− mice starting one day before the Dox water treatment. The doses were administered to the mice every other day during the 2 week doxyxycline (dox) treatment interval.
(§3) To determine if the innate immunity agonists altered established VEGF-induced tissue responses, a “post treatment” protocol was used in selected experiments. In these experiments the innate immunity agonist was administered 2 days or 14 days after the doxycycline and VEGF-induced responses were evaluated 2 weeks later.
(§4) To define the effects of Poly(I:C) a number of protocols were employed. In most experiments, a pretreatment-2 week protocol was employed. In these experiments, WT and Tg+ mice were treated with Poly(I:C) (30 μg in 50 lambda unless otherwise indicated; Amersham Biosciences, N.J.) or vehicle control via nasal aspiration and transgene activation was accomplished via the administration of dox (0.5 mg/ml) in the animal's drinking water 24 hours later. The Poly(I:C) was administered every other day and the dox was administered continuously for up to 2 weeks.
In selected experiments a pretreatment protocol and shorter treatment interval was employed. In these experiments, WT and Tg+ mice were treated with Poly(I:C) (30 μg/mouse/dose in 50 μl) or vehicle control via nasal aspiration and transgene activation was accomplished with dox 24 hours later. The animals were then randomized to not receive or receive one additional dose of Poly(I:C) 24 hours later and dox was administered continuously during this 2 week interval.
(§5) Lastly, in selected experiments post-transgene activation protocols were employed. In these experiments dox was administered for 2 days or 2 weeks. The Poly(I:C) was then administered via intranasal aspiration every other day for 2 weeks as disclosed elsewhere herein. In selected pre-treatment and post-transgene activation experiments, unmethylated CpG (CpG-B) (Keck Center, Yale University) was also employed at similar doses. At the end of these intervals, assessments of angiogenesis (anti-CD31 immunohistochemistry), vascular permeability (Evan's blue dye extravasation, wet to dry lung weight measurements, BAL protein concentration), BAL and tissue inflammatory cell infiltration and mucus metaplasia (periodic acid-Schiff (PAS) staining, MUC5AC immunoblotting) were undertaken. In all cases experiments were designed to compare Tg− and Tg+ mice on normal water and Tg− and Tg+ mice on dox water.

Data set [2] shares this test system. The data set can be described thus: BAL inflammatory cell recovery, VEGF-induced inflammation. The format is in vivo, mouse. Particulars: for Total cells (×10^4): VEGF-induced tissue responses, TLR agonist administration, PBS control 50. As for the experimental part:
as §1, §2, §3, §4, §5
Mice were sacrificed using intraperitoneal ketamine/xylazine injection and the trachea was cannulated and perfused with two 0.9 nil aliquots of cold saline. The cellular contents and BAL fluid were separated by centrifugation, the BAL cell number was quantitated and cell differential was assessed. The BAL fluid was stored in aliquots at −80° C.

Data set [3] has the same test system. Kind of data set: VEGF-induced mucus metaplasia (PAS staining, BAL MUC5AC). The format is in vivo, mouse. The following applies: Tg+ mice, pretreatment, vs vehicle. As for the experimental part:
as §4, §5
The lungs were removed en bloc as described elsewhere herein, inflated at 25 cm pressure with PBS containing 0.5% low melting point agarose gel, fixed in Streck solution (Streck Laboratories, La Vista, Nebr.), embedded in paraffin, sectioned and stained. Hematoxylin and eosin and PAS stains were performed in the Research Histology Laboratory of the Department of Pathology at the Yale University School of Medicine. Pulmonary hemorrhage was evaluated by quantitating BAL red blood cell number with a Coulter counter (Beckman Coulter).
The levels of MUC5AC, the major airway mucin in BAL fluids, were assessed as previously described (Lee et al., 2008, Am J Respir Cell Mol Biol 39:739-746). In these evaluations, 0.1 ml of BAL fluid was slot blotted onto nitrocellulose membranes using a Minifold II slot blot apparatus (Schleicher & Schuell). After air-drying, the membrane was blocked with 5% skim milk, washed three times and incubated overnight at 4° C. with a monoclonal antibody against Mucin-5AC (45M1; NeoMarkers, Union City, Calif.). After washing, the membranes were incubated for 1 hour at room temperature with horseradish peroxidase-conjugated anti-mouse immunoglobulin (Ig)-G (Pierce). Immunoreactive mucins were detected using a chemiluminescent procedure (ECL Plus Western blotting detection system, Amersham Biosciences) according to instructions from the manufacturer.

Data set [4] shares this test system. The data set can be described thus: VEGF-induced pulmonary hemorrhage in BAL fluids. The data set is classed as in vivo, mouse. The following applies: Tg+ mice, pretreatment, vs vehicle. As for the experimental part:
as §1, with “10:1095-103). […]” for “10:1095-103).”
Mice were sacrificed using intraperitoneal ketamine/xylazine injection and the trachea was cannulated and perfused with two 0.9 nil aliquots of cold saline. The cellular contents and BAL fluid were separated by centrifugation, the BAL cell number was quantitated and cell differential was assessed. […]
The lungs were removed en bloc as described elsewhere herein, inflated at 25 cm pressure with PBS containing 0.5% low melting point agarose gel, fixed in Streck solution (Streck Laboratories, La Vista, Nebr.), embedded in paraffin, sectioned and stained. […] Pulmonary hemorrhage was evaluated by quantitating BAL red blood cell number with a Coulter counter (Beckman Coulter).

For the next data set, the system named is human patients. Particulars: cited from earlier work.

Turning to `CCNCc1nc2c(N)nc3ccccc3c2n1CC(C)(C)O` [Gardiquimod], in data set [1] (Tg+ mice, pretreatment starting 1 day before dox, vs vehicle), the “VEGF-induced angiogenesis (vascular density, appearance, sprouting)” value is on record as “decreased”. For the same compound, the “Vascularity (%)” value in data set [1] was 32.4%. Further, the “total recovery of inflammatory cells during BAL / VEGF-induced inflammation” value in data set [2] (Tg+ mice, pretreatment, vs vehicle) is recorded as “decreased”. Also, the “Total cells (×10^4)” value in data set [2] was 29 ×10^4. Besides, the “VEGF-induced mucus metaplasia (PAS stains, BAL MUC5AC accumulation)” value in data set [3] is “decreased”. Further, the “VEGF-induced bleeding / hemorrhage in BAL fluids” value in data set [4] was “decreased”.
As to poly-ICLC, in the data set on human patients (10 to 50 mcg/kg), the “toxicity, lower dose” value is listed as “little or no toxicity”. Further, the “toxicity and efficacy in human patients, high doses” value in the data set on human patients (200-300 mcg/kg IV) is “toxic and largely ineffectual”.
Take Lipopolysaccharide [LPS]: the “Vascularity (%)” value in data set [1] is given as 32.2%. The “Total cells (×10^4)” value in data set [2] was 156 ×10^4.
